Our source for the IC50 values is ChEMBL document CHEMBL5052818, “Aminopyrimidine derivatives as ctps1 inhibitors” (2019).

The nature of this assay: Inhibition of C-terminal FLAG-His-tagged full length human CTPS1 measured after 60 mins by ADP-Glo assay. (ADP-Glo first removes unused ATP, then detects ADP through luciferase.)
Usually IC50 stands for the concentration that gives 50% inhibition. Read a low IC50 as greater potency in that assay. `O=C(Cc1nc(NS(=O)(=O)C2CC2)ncc1F)Nc1ccc(-c2cccnc2)cc1` came in with an IC50 greater than 1 µM.
For `CC(C)Oc1cncc(-c2ccc(NC(=O)Cc3ccnc(NS(=O)(=O)C4CC4)n3)cc2)n1` the value was no more than 0.1 µM; for `CC(C)Oc1cncc(-c2ccc(NC(=O)C(C)(C)c3ccnc(NS(C)(=O)=O)n3)c(F)c2)n1`, greater than 0.1 µM; for `CC(C)(C(=O)Nc1ccc(-c2cccc(Cl)c2)cc1)c1ccnc(NS(=O)(=O)C2CC2)n1`, greater than 1 µM.
In turn, `CC(C)(C(=O)Nc1ccc(-c2cncc(C(F)(F)F)n2)cc1F)c1ccnc(NS(=O)(=O)C2CC2)n1` registered an IC50 of no more than 0.1 µM.
The figure for `CCOc1cncc(-c2ccc(NC(=O)C(C)(C)c3ccnc(NS(=O)(=O)C4CC4)n3)c(OC)c2)n1` is no more than 0.1 µM; for `CC(C)(C(=O)Nc1ccc(-c2cncc(C#N)c2)cc1)c1ccnc(NS(=O)(=O)C2CC2)n1` it is greater than 0.1 µM; for `CCOc1cncc(-c2ccc(NC(=O)C(C)(C)c3ccnc(NS(=O)(=O)CC)n3)cc2)n1` it is greater than 0.1 µM.
The figure for `CCOc1cccc(-c2ccc(NC(=O)C(C)(C)c3ccnc(NS(=O)(=O)C4CC4)n3)cc2)c1` is greater than 10 µM.
For `CC(C)Oc1cncc(-c2ccc(NC(=O)Cc3ccnc(NS(=O)(=O)C4CC4)n3)c(F)c2)n1` the value was no more than 0.1 µM; for `CC(C)(C(=O)Nc1ccc(-c2cccnc2)cc1)c1ccnc(NS(=O)(=O)C2CC2)n1`, greater than 1 µM.
In the case of `CCOc1cncc(-c2ccc(NC(=O)C(C)(C)c3ccnc(NS(=O)(=O)CC)n3)c(F)c2)n1`, the IC50 is greater than 0.1 µM.
With `CCC(C(=O)Nc1ccc(-c2cncc(C(F)(F)F)c2)cc1)c1ccnc(NS(=O)(=O)C2CC2)n1` (stereo not drawn), the IC50 was greater than 0.1 µM.
For `CCOc1cncc(-c2ccc(NC(=O)C(C)(C)c3ccnc(NS(=O)(=O)C4CCC4)n3)nc2)n1` the value was greater than 0.1 µM.
For `CCOc1cncc(-c2cnc(NC(=O)C(C)(C)c3ccnc(NS(C)(=O)=O)n3)c(F)c2)n1` the value was greater than 0.1 µM; for `CCOc1cncc(-c2cnc(NC(=O)C(C)(C)c3ccnc(NS(=O)(=O)C4CC4)n3)c(F)c2)n1`, no more than 0.1 µM; for `CCOc1cncc(-c2ccc(NC(=O)C(C)(C)c3nc(NS(=O)(=O)C4CC4)ncc3F)cc2)n1`, greater than 0.1 µM.
`CCOc1cncc(-c2ccc(NC(=O)C(C)(C)c3ccnc(NS(=O)(=O)C4CC4)n3)c(Cl)c2)n1` came in with an IC50 of no more than 0.1 µM.
For `CCOc1cncc(-c2cc(C)c(NC(=O)C(C)(C)c3ccnc(NS(=O)(=O)C4CC4)n3)cc2F)n1` the value was greater than 0.1 µM.
The figure for `O=C(Cc1ccnc(NS(=O)(=O)C2CC2)n1)Nc1ccc(-c2cncc(C(F)(F)F)n2)cc1` is no more than 0.1 µM; for `CC(C)(C(=O)Nc1ccc(-c2cncc(F)c2)cc1)c1ccnc(NS(=O)(=O)C2CC2)n1` it is greater than 0.1 µM; for `CCOc1cncc(-c2ccc(NC(=O)C(CC)(CC)c3ccnc(NS(=O)(=O)C4CC4)n3)cc2)n1` it is no more than 0.1 µM.
For `CC(C)(C(=O)Nc1ccc(-c2cccc(C(F)(F)F)c2)cc1)c1ccnc(NS(=O)(=O)C2CC2)n1` the value was greater than 1 µM.
As for `CC(C)Oc1cncc(-c2ccc(NC(=O)C(C)(C)c3ccnc(NS(=O)(=O)C4CC4)n3)c(F)c2)c1`, the IC50 is greater than 0.1 µM.
For `CC(C)Oc1cncc(-c2ccc(NC(=O)C(C)(C)c3ccnc(NS(C)(=O)=O)n3)c(F)c2)c1` the value was greater than 1 µM; for `O=C(Cc1ccnc(NS(=O)(=O)C2CC2)n1)Nc1ccc(-c2cncc(C(F)(F)F)n2)cc1F`, no more than 0.1 µM.
For `O=C(Cc1ccnc(NS(=O)(=O)C2CC2)n1)Nc1ccc(-c2cncc(OCC(F)(F)F)n2)cc1` the value was no more than 0.1 µM; for `CC(C)(C(=O)Nc1ccc(-c2cncc(C(F)(F)F)c2)cc1)c1ccnc(NS(=O)(=O)C2CC2)n1`, greater than 0.1 µM; for `CC(C)Oc1cncc(-c2ccc(NC(=O)C(C)(C)c3ccnc(NS(=O)(=O)C4CCC4)n3)c(F)c2)n1`, greater than 0.1 µM.
For `CCOc1cncc(-c2ccc(NC(=O)C(C)(C)c3nc(NS(=O)(=O)C4CC4)ncc3C)cc2)n1` the value was greater than 1 µM; for `O=C(Cc1ccnc(NS(=O)(=O)C2CC2)n1)Nc1ccc(-c2cccnc2)cc1`, greater than 0.1 µM; for `CC(C)(C(=O)Nc1ccc(-c2cccnc2)cn1)c1ccnc(NS(=O)(=O)C2CC2)n1`, greater than 1 µM.
The compound `COc1cncc(-c2ccc(NC(=O)C(C)(C)c3ccnc(NS(=O)(=O)C4CCC4)n3)cc2)n1` had an IC50 greater than 0.1 µM.
Consider `COc1cncc(-c2ccc(NC(=O)Cc3ccnc(NS(=O)(=O)C4CC4)n3)cc2)n1`, for which the IC50 is no more than 0.1 µM.
The figure for `CC(C)Oc1cncc(-c2ccc(NC(=O)C(C)(C)c3ccnc(NS(=O)(=O)C4CC4)n3)cc2)n1` is no more than 0.1 µM; for `CCOc1cncc(-c2ccc(NC(=O)C(C)(C)c3ccnc(NS(=O)(=O)C4CC4)n3)cc2)n1` it is no more than 0.1 µM.
The figure for `CCOc1cncc(-c2cc(C)c(NC(=O)C(C)(C)c3ccnc(NS(=O)(=O)C4CC4)n3)cc2C)n1` is greater than 0.1 µM; for `CCOc1cncc(-c2ccc(NC(=O)C(C)(C)c3ccnc(NS(=O)(=O)C4CCC4)n3)c(C)c2)n1` it is greater than 0.1 µM.
For `CC(C)Oc1cncc(-c2ccc(NC(=O)C(C)(C)c3ccnc(NS(=O)(=O)C4CC4)n3)c(F)c2)n1` the value was no more than 0.1 µM.
In turn, `CCOc1cncc(-c2ccc(NC(=O)C(C)(C)c3ccnc(NS(=O)(=O)C4CC4)n3)c(C#N)c2)n1` displayed an IC50 of no more than 0.1 µM.
The figure for `CC(C)(C(=O)Nc1ccc(-c2cncc(C(F)(F)F)n2)cc1)c1ccnc(NS(=O)(=O)C2CC2)n1` is no more than 0.1 µM; for `O=C(Cc1ccnc(NS(=O)(=O)C2CC2)n1)Nc1ccc(-c2ccccc2)cc1` it is greater than 1 µM; for `CC(C)(C(=O)Nc1ccc(-c2cccc(C#N)c2)cc1)c1ccnc(NS(=O)(=O)C2CC2)n1` it is greater than 1 µM.
The figure for `CCOc1cncc(-c2ccc(NC(=O)C(C)(C)c3ccnc(NS(=O)(=O)C4CC4)n3)c(F)c2)n1` is no more than 0.1 µM.
The figure for `CCOc1cncc(-c2ccc(NC(=O)C(C)(C)c3ccnc(NS(=O)(=O)C4CC4)n3)c(C)c2C)n1` is greater than 0.1 µM.
In turn, `CC(C)(C(=O)Nc1ccc(-c2cncnc2)cc1)c1ccnc(NS(=O)(=O)C2CC2)n1` returned an IC50 greater than 1 µM.
The figure for `CC(C)(C(=O)Nc1ccc(-c2cnccn2)cc1)c1ccnc(NS(=O)(=O)C2CC2)n1` is greater than 1 µM; for `CC(C)Oc1cncc(-c2ccc(NC(=O)C(C)(C)c3ccnc(NS(=O)(=O)C4CC4)n3)cc2)c1` it is greater than 0.1 µM; for `O=C(Cc1ccnc(NS(=O)(=O)C2CC2)n1)Nc1ccc(-c2cncc(C(F)(F)F)c2)cc1` it is greater than 0.1 µM.
The figure for `Cc1cncc(-c2ccc(NC(=O)C(C)(C)c3ccnc(NS(=O)(=O)C4CC4)n3)cc2)c1` is greater than 0.1 µM; for `CCOc1cncc(-c2cc(F)c(NC(=O)C(C)(C)c3ccnc(NS(=O)(=O)C4CC4)n3)c(F)c2)n1` it is no more than 0.1 µM.
The figure for `Cc1cncc(-c2ccc(NC(=O)C(C)(C)c3ccnc(NS(C)(=O)=O)n3)c(C)c2)n1` is greater than 1 µM; for `CC(C)Oc1cncc(-c2ccc(NC(=O)C(C)(C)c3ccnc(NS(=O)(=O)C4CC4)n3)nc2)n1` it is no more than 0.1 µM.
`COc1cncc(-c2ccc(NC(=O)C(C)(C)c3ccnc(NS(=O)(=O)C4CC4)n3)cc2)n1` displayed an IC50 of no more than 0.1 µM.
For `CCOc1cncc(-c2ccc(NC(=O)C(C)(C)c3ccnc(NS(=O)(=O)C4CC4)n3)nc2)n1` the value was no more than 0.1 µM; for `CC(C)(C(=O)Nc1ccc(-c2cncc(OC3CC3)n2)cn1)c1ccnc(NS(=O)(=O)C2CC2)n1`, no more than 0.1 µM.
The figure for `CCOc1cncc(-c2ccc(NC(=O)C(C)(C)c3ccnc(NS(=O)(=O)C4CCC4)n3)cc2)n1` is greater than 0.1 µM; for `CCOc1cncc(-c2ccc(NC(=O)C3(c4ccnc(NS(=O)(=O)C5CC5)n4)CCCC3)cc2)n1` it is no more than 0.1 µM; for `Cc1cc(-c2cncc(C(F)(F)F)n2)ccc1NC(=O)C(C)(C)c1ccnc(NS(=O)(=O)C2CC2)n1` it is greater than 0.1 µM.
The figure for `CC(C)(C(=O)Nc1ccc(-c2cncc(OC3CC3)n2)cc1)c1ccnc(NS(=O)(=O)C2CC2)n1` is greater than 0.1 µM; for `CC(C)(C(=O)Nc1ccc(-c2cncc(Cl)c2)cc1)c1ccnc(NS(=O)(=O)C2CC2)n1` it is greater than 0.1 µM.
Regarding `COc1cncc(-c2ccc(NC(=O)C(C)(C)c3ccnc(NS(=O)(=O)C4CC4)n3)cc2)c1`, the IC50 is greater than 0.1 µM.
For `CCOc1cncc(-c2ccc(NC(=O)C(C)(C)c3ccnc(NS(=O)(=O)C4(C)CC4)n3)cc2)n1` the value was greater than 0.1 µM; for `CCOc1cncc(-c2cc(OC)c(NC(=O)C(C)(C)c3ccnc(NS(=O)(=O)C4CC4)n3)cc2F)n1`, greater than 0.1 µM; for `CCOc1cncc(-c2ccc(NC(=O)C(C)(C)c3ccnc(NS(=O)(=O)C4CC4)n3)cc2)c1`, greater than 0.1 µM.
For `O=C(Cc1ccnc(NS(=O)(=O)C2CC2)n1)Nc1ccc(-c2cncc(OCC(F)(F)F)c2)cc1` the value was greater than 0.1 µM.
For `CC(C)(C(=O)Nc1ccc(-c2cncc(C(F)(F)F)n2)cn1)c1ccnc(NS(=O)(=O)C2CC2)n1` the value was no more than 0.1 µM; for `CCOc1cncc(-c2ccc(NC(=O)C(C)(C)c3ccnc(NS(C)(=O)=O)n3)nc2)n1`, greater than 0.1 µM; for `CC(C)(C(=O)Nc1ccc(-c2cnccn2)cc1F)c1ccnc(NS(=O)(=O)C2CC2)n1`, greater than 1 µM.
The compound `CCOc1cncc(-c2ccc(NC(=O)Cc3ccnc(NS(=O)(=O)C4CC4)n3)cc2)n1` displayed a concentration for half-maximal inhibition (IC50) of no more than 0.1 µM.
The figure for `CCOc1cncc(-c2ccc(NC(=O)C(C)(C)c3ccnc(NS(=O)(=O)C4CC4)n3)c(OC(F)(F)F)c2)n1` is no more than 0.1 µM; for `CCC(C(=O)Nc1ccc(-c2cncc(Cl)c2)cc1)c1ccnc(NS(=O)(=O)C2CC2)n1` (stereo not drawn) it is greater than 0.1 µM.
For `CCC(C(=O)Nc1ccc(-c2cnccn2)cc1F)c1ccnc(NS(=O)(=O)C2CC2)n1` (stereo not drawn) the value was greater than 0.1 µM.
The figure for `CCOc1cncc(-c2ccc(NC(=O)C(C)(C)c3ccnc(NS(=O)(=O)C4CC4)n3)nc2)c1` is greater than 0.1 µM.
`CCOc1cncc(-c2cc(F)c(NC(=O)C(C)(C)c3ccnc(NS(=O)(=O)C4CC4)n3)cc2C)n1` gave an IC50 greater than 0.1 µM.
The compound `CC(C)(C(=O)Nc1ccc(-c2cncc(OC(F)F)c2)cc1)c1ccnc(NS(=O)(=O)C2CC2)n1` showed a concentration for half-maximal inhibition (IC50) of no more than 0.1 µM.
For `CC(C)(C(=O)Nc1ccc(-c2cccnc2)cc1F)c1ccnc(NS(=O)(=O)C2CC2)n1` the value was greater than 1 µM.
For `CCS(=O)(=O)Nc1nccc(C(C)(C)C(=O)Nc2ccc(-c3cncc(C(F)(F)F)n3)cc2)n1` the value was greater than 0.1 µM.
